Measured values published in paper PMC8066833 (Pharmaceuticals, 2021).

How the values were obtained:
HSV-1 [1] = experiment: HSV-1 inactivation: virus pre-incubated with peptoid, infection of OKF6/TERT-1 cells, HSV-1 DNA by QPCR; format: cell-based, Herpes Simplex Virus-1; conditions: for Activity against HSV-1 (screening, HSV-1 DNA by QPCR relative to β-actin): virus incubated with peptoid at 20 µg/mL for 2 h at 37 °C, then infection of OKF6/TERT-1 cells for 24 h
HSV-1-GFP = experiment: Fluorescence imaging of HSV-1-GFP infection; format: cell-based, Herpes Simplex Virus-1; conditions: virus treated at 20 µg/mL for 2 h; control-treated virus showed strong fluorescence
HSV-1 [2] = experiment: Electron microscopy (negative staining and cryo-EM) of peptoid-treated HSV-1; set-up: species or system Herpes Simplex Virus-1; conditions: HSV-1 treated 2 h at 37 °C; untreated controls 21% unenveloped capsids
Experimental: Figure 3 Transmission electron microscope imaging of peptoid-treated HSV-1 vs. controls and comparative analysis of results. Virus was treated for 2 h at 37 °C followed by preparation for EM imaging as described in Materials and Methods. (A) Negative stained EM. (B) Cryo-EM. Visible in the control samples are the viral envelope and intact capsid (both panels). In the samples treated with the peptoids we observe both disrupted envelopes (top panels) and naked capsids (bottom panels).
HSV-1 (1 × 10^8 pfu/mL) was incubated with peptoids or control medium for 2 h. at 37 °C. After incubation, the virus was fixed by addition of 2 volumes 4% glutaraldehyde/PBS, and fixed at 4 °C for 24 h. Virus was applied to grids (ultrathin carbon with lacey support film, Ted Pella, Inc.) for 1 min, followed by staining in 1% phosphotungstic acid for 1 min. Excess liquid was blotted and grids were allowed to air dry. Images were collected using a Thermo Scientific™ Talos™ F200X at 200 kV accelerating voltage with 50 μm objective aperture inserted to enhance contrast. Images were captured using a 4k × 4k CMOS camera (Thermo Scientific, Waltham, MA, USA, Ceta 16M™).
After incubation of HSV-1 virus with peptoids for 2 h. at 37 °C, samples were vitrified using Leica EM-GP2® plunger (Leica Microsystems) as previously described on carbon holey film (R2 × 1 Quantifoil®; Micro Tools GmbH, Jena, Germany) grids. […]

mammalian cells = conditions: cited from earlier work
Source text: (§1) This effort led to the development of MXB-5 [H-Ntridec-NLys-Nspe-Nspe-NLys-NH2; see Figure 1 for structure), a peptoid with a 13-carbon N-terminal alkyl modification, that shares some structural similarities with MXB-1 [31]. […] In one in vivo experiment which has been presented orally online, mice were infected intratracheally with bioluminescent Pseudomonas aeruginosa, and were ...

Pseudomonas aeruginosa = conditions: cited from earlier work
Source text: as §1

[3] = test system: Pseudomonas aeruginosa biofilms; conditions: cited from earlier work
[4] = Small Angle X-ray Scattering, self-assembly in aqueous PBS buffer; format: physicochemical; conditions: unpublished data, manuscript in preparation
Source text: Comparing the structures of the ten peptoids on our new library with regard to antiviral activity, halogenation seems to be beneficial as every active compound (except MXB-5) includes at least two Nspe(p-Br) submonomers. […] This difference in activity potentially can be explained by differences in net molecular hydrophobicity upon halogen substitution as previously reported by Molchanova et al.. In this study they found an increasing antimicrobial activity correlating with increasing hydrophobicity, until a threshold was reached where the activity dropped. […] Further studies are needed to make definitive conclusions about these effects. We believe that a certain type and degree and stability of peptoid self-assemblies in aqueous media can be an important determinant of both activity, and selectivity. If assemblies remain intact near zwitterionic mammalian cells, but disassemble near anionic pathogenic membranes, they can be selective towards affecting pathogens while causing little to no harm to the host.

EpiOral cells = format: cell-based, human; conditions: 3D primary oral epithelial cultures (EpiOral), apical application for 3 h, any concentration up to 256 µg/mL, n = 3 wells per concentration
Experimental: To provide further evidence to support the development of these agents as potential therapeutics, we assayed cytotoxicity against cultured cells. To provide the optimal in vitro toxicity model, we used 3-dimensional primary cultures of oral epithelial cells (EpiOral, MatTek Life Sciences, Ashland, MA, USA), grown at an air-liquid interface. The cultures were tested in the presence of increasing concentrations of MXB-4, MXB-5 and MXB-9 for 3 h, applied to the apical surface. Viability was monitored using the MTT assay. […] Incubation with 50% ethanol led to 0% viability (not shown).
Figure 6 In vitro toxicity of peptoids. Peptoids were incubated on the apical surface of cultured EpiOral cells (n = 3 wells per concentration) for 3 h. Cell viability was quantified by MTT assay and are shown as mean percent survival +/− SD. Results shown are representative of two independent replicate experiments.
Normal human bronchial epithelial cells, obtained from MatTek (EpiAirway) were grown at an air-liquid interface at 37 °C. […] Cell viability was quantified using the CyQUANT MTT Cell Viability Assay (ThermoFisher, Waltham, MA, USA), following the manufacturer’s instructions Absorbance was read at 540 nm and percent survival was calculated relative to untreated cultures. […]

[5] = delivered intraperitoneally to treat a bacterial infection; cited from earlier work
Source text: Peptoid 1 [H-(NLys-Nspe-Nspe)4-NH2], designated here as MXB-1, is a 12-mer with the trimer sequence motif NLys-Nspe-Nspe repeated four times (structures of the monomers are shown in Figure 1A). It is a helical peptoid with broad-spectrum activity against a variety of pathogens, including viruses as shown here; it is also active against fungi and bacterial biofilms.

| Substance | Activity against HSV-1 (screening, HSV-1 DNA by QPCR relative to β-actin) (HSV-1 [1]) | GFP fluorescence in cells at 24 h post-infection (viral replication) (HSV-1-GFP) | Activity against HSV-1, dose-dependence (HSV-1 [1]; 20 µg/mL for 2 h (5 and 20 µg/mL tested), Figure 2B) | Incubation time at which inactivation of HSV-1 is seen (time course) (HSV-1 [1]; time course, Figure 2C) | Cryo-EM quantification of whole virus, disrupted envelopes and naked capsids (HSV-1 [2]) | Cytotoxicity to mammalian cells relative to MXB-1 (mammalian cells) | Tolerability in the lungs of the mice (Pseudomonas aeruginosa; intratracheal infection model) | Bacterial loads compared to untreated animals (Pseudomonas aeruginosa; mice, intratracheal infection with bioluminescent Pseudomonas aeruginosa) | Activity against Pseudomonas aeruginosa biofilms [3] | Self-assembled structure in solution (SAXS) [4] | Cytotoxicity (viability by MTT assay) (EpiOral cells) | Tolerability when delivered intraperitoneally [5] |
| --- | --- | --- | --- | --- | --- | --- | --- | --- | --- | --- | --- | --- |
| LL-37: human cathelicidin AMP, natural human host defense peptide (LLGDFFRKSKEKIGKEFKRIVQRIKDFLRNLVPRTES; Antibacterial peptide LL-37; UniProt P49913 134-170, looked up) [reference compound] | direct inactivation of HSV-1 | – | – | – | – | – | – | – | – | – | – | – |
| H-Ntridec-NLys-Nspe-Nspe-NLys-NH2 [MXB-5] | strong activity | very weak fluorescence | strong activity | ≤ 30 min | large increase in both unenveloped capsids | significantly less cytotoxic | well tolerated | significant reduction in bacterial loads | highly active | stable core-shell ellipsoidal micellar structures | no observable cytotoxicity | – |
| H-(NLys-Nspe-Nspe)4-NH2 [MXB-1] | – | – | – | – | – | – | – | – | – | – | – | reasonably well tolerated |
